Target: T1, human GluN1/GluN2B NMDA receptors (Homo sapiens, UniProt Q13224)
T1 construct: expressed in transfected cells
Experiment: Cell-based calcium flux (FLIPR) assay on cloned human NR1/NR2B ion channels expressed in mammalian cells (standard and HTS buffer variants);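 note: stable Tet-On inducible cell line, Ca2+ influx triggered by glutamate at about EC40 plus 10 µM glycine, fluorescent dye read-out over 5 min, normalized to control wells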
Settings: standard assay buffer (0.5 mM MgCl2 dye loading; 137 mM NaCl, 4 mM KCl assay buffer), human GluN1/GluN2B cells, read-out: NR2B IC50 (μM) standard assay

T1 sequence (Q13224 27-1484, other chains not shown): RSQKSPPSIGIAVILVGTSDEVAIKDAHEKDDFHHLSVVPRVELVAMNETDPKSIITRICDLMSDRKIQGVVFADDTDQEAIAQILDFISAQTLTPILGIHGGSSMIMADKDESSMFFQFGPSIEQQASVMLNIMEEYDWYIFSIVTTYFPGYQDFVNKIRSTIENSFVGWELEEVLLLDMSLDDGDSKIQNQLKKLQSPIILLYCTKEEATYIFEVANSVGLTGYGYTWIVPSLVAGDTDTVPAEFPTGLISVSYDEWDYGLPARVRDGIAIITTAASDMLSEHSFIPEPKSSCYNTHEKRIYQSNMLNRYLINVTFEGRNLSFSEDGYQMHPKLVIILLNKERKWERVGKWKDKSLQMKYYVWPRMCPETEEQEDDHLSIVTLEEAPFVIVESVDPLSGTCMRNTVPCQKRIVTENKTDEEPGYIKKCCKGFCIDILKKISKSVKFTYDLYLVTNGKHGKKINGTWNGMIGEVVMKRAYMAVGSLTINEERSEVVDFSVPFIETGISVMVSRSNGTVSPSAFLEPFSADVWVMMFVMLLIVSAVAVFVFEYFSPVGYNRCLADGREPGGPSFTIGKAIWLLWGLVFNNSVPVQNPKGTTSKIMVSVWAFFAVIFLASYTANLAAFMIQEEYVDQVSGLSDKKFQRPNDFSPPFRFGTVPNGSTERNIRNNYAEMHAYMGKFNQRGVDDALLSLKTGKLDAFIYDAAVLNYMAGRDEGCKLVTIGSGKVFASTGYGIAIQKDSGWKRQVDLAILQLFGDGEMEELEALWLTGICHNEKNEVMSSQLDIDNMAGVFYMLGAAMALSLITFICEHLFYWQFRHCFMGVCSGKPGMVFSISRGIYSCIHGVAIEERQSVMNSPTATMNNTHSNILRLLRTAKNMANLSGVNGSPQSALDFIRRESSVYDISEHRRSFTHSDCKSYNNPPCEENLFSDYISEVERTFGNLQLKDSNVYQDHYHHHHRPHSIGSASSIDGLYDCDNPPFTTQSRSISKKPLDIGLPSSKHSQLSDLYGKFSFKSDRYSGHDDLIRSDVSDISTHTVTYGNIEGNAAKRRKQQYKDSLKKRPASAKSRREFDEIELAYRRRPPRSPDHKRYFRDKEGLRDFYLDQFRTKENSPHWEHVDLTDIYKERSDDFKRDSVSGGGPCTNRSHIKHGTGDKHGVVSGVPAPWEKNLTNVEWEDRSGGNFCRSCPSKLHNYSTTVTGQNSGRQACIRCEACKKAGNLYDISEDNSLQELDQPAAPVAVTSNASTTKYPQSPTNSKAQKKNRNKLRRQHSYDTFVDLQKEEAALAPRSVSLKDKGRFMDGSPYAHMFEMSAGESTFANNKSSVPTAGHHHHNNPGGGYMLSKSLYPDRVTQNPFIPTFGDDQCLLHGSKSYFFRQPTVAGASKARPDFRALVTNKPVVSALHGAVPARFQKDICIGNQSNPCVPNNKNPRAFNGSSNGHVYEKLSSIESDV

Row | IC50 [µM] | SMILES
1 | 1.9 | Cn1c(=O)n(Cc2ccncc2)c2cc(-c3ccc(F)c(F)c3)cnc21 [Example 58, 6-(3,4-Difluorophenyl)-3-methyl-1-(4-pyridylmethyl)imidazo[4,5-b]pyridin-2-one]
2 | 0.725 | Cc1c(F)ccc(-c2cnc3c(c2)n(Cc2ccncc2)c(=O)n3C)c1F [Example 66, 6-(2,4-Difluoro-3-methyl-phenyl)-3-methyl-1-(4-pyridylmethyl)imidazo[4,5-b]pyridin-2-one]
3 | 0.009 | Cc1c(F)ccc(-c2cnc3c(c2)n(Cc2cccnn2)c(=O)n3C)c1F [Example 67, 6-(2,4-Difluoro-3-methyl-phenyl)-3-methyl-1-(pyridazin-3-ylmethyl)imidazo[4,5-b]pyridin-2-one]
4 | 0.31 | Cc1c(F)ccc(-c2cnc3c(c2)n(Cc2ccccn2)c(=O)n3C)c1F [Example 68, 6-(2,4-Difluoro-3-methyl-phenyl)-3-methyl-1-(2-pyridylmethyl)imidazo[4,5-b]pyridin-2-one]
5 | 0.033 | Cc1c(F)ccc(-c2cnc3c(c2)n(Cc2cncnc2)c(=O)n3C)c1F [Example 69]
6 | 0.482 | Cc1c(F)ccc(-c2cnc3c(c2)n(Cc2ccncn2)c(=O)n3C)c1F [Example 72, 6-(2,4-Difluoro-3-methyl-phenyl)-3-methyl-1-(pyrimidin-4-ylmethyl)imidazo[4,5-b]pyridin-2-one]

Continued, compound first:

Row | SMILES | IC50 [µM]
7 | Cn1c(=O)n(Cc2cccnn2)c2cc(-c3cccc(F)c3)cnc21 [Example 57, 6-(3-Fluorophenyl)-3-methyl-1-(pyridazin-3-ylmethyl)imidazo[4,5-b]pyridin-2-one] | 0.2
8 | Cn1c(=O)n(Cc2cccnc2)c2cc(-c3ccc(F)c(F)c3)cnc21 [Example 59, 6-(3,4-Difluorophenyl)-3-methyl-1-(3-pyridylmethyl)imidazo[4,5-b]pyridin-2-one] | 0.246
9 | Cn1c(=O)n(Cc2cncnc2)c2cc(-c3ccc(F)c(F)c3)cnc21 [Example 60, 6-(3,4-Difluorophenyl)-3-methyl-1-(pyrimidin-5-ylmethyl)imidazo[4,5-b]pyridin-2-one] | 0.45
10 | Cn1c(=O)n(Cc2cccnn2)c2cc(-c3ccc(F)c(F)c3)cnc21 [Example 61, 6-(3,4-Difluorophenyl)-3-methyl-1-(pyridazin-3-ylmethyl)imidazo[4,5-b]pyridin-2-one] | 0.223
11 | Cn1c(=O)n(Cc2ccccn2)c2cc(-c3ccc(F)c(F)c3)cnc21 [Example 62, 6-(3,4-difluorophenyl)-3-methyl-1-(2-pyridylmethyl)imidazo[4,5-b]pyridin-2-one] | 2
12 | Cn1c(=O)n(Cc2cnccn2)c2cc(-c3ccc(F)c(F)c3)cnc21 [Example 63, 6-(3,4-Difluorophenyl)-3-methyl-1-(pyrazin-2-ylmethyl)imidazo[4,5-b]pyridin-2-one] | 2.3
13 | Cn1c(=O)n(Cc2ncccn2)c2cc(-c3ccc(F)c(F)c3)cnc21 [Example 64, 6-(3,4-Difluorophenyl)-3-methyl-1-(pyrimidin-2-ylmethyl)imidazo[4,5-b]pyridin-2-one] | 3.59
14 | Cc1c(F)ccc(-c2cnc3c(c2)n(Cc2ncccn2)c(=O)n3C)c1F [Example 65, 6-(2,4-Difluoro-3-methyl-phenyl)-3-methyl-1-(pyrimidin-2-ylmethyl)imidazo[4,5-b]pyridin-2-one] | 0.81
15 | Cn1c(=O)n(Cc2ccncn2)c2cc(-c3ccc(F)c(F)c3)cnc21 [Example 70, 6-(3,4-Difluorophenyl)-3-methyl-1-(pyrimidin-4-ylmethyl)imidazo[4,5-b]pyridin-2-one] | 2.21
16 | Cc1cc(-c2cnc3c(c2)n(Cc2ccncn2)c(=O)n3C)ccc1F [Example 71, 6-(4-Fluoro-3-methyl-phenyl)-3-methyl-1-(pyrimidin-4-ylmethyl)imidazo[4,5-b]pyridin-2-one] | 0.278
17 | Cc1nnc(Cn2c(=O)n(C)c3ncc(-c4ccc(F)c(F)c4)cc32)o1 [Example 73, 6-(3,4-Difluorophenyl)-3-methyl-1-[(5-methyl-1,3,4-oxadiazol-2-yl)methyl]imidazo[4,5-b]pyridin-2-one] | 0.314
